Measurements as given in patent US11130769B2 (Prelude Therapeutics Incorporated, priority 2018, dated 2021).

Legend:
H929 cells = test: Cell viability assay (H929 10 FBS); format: cell-based; details: Homo sapiens, NCI-H929, 24 hours, read-out: H929_10FBS IC50
Procedure, shortened: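 ATP-based luminescence (CellTiter-Glo or ATPlite 1 Step, 30-60 min at RT) gauged viability of H929 myeloma cells after 24 h compound treatment at 37 °C. Cells plated at 4000 per well in 10% FBS RPMI 1640 supplemented with pyruvate, HEPES and glucose.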

MCL-1 = MCL-1 (Homo sapiens (Human), UniProt Q07820); test: Cell free Mcl-1:Bim affinity assay (fluorescence polarization competition); format: binding; details: 15 nM MCL-1, 5 nM FITC-Bim, 1 hour at room temperature; class symbols; read-out: BIM_Ki
Chain of MCL-1 (Q07820 whole entry): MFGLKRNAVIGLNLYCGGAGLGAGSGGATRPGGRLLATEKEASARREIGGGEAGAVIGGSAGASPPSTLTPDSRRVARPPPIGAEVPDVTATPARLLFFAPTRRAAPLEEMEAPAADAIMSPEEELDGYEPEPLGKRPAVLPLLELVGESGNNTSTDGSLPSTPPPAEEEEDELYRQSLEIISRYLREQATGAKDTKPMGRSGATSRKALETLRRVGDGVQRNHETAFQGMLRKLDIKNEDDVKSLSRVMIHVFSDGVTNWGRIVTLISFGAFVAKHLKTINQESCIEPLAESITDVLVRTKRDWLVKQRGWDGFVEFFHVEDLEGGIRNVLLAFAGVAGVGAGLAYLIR
Procedure, shortened: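 Fluorescence polarization competition: 10-point 3-fold compound dilutions displaced 5 nM FITC-Bim from 15 nM MCL-1 over 1 h at room temperature. Ki was derived from the fitted IC50 using the Nikolovska-Coleska equation, with percent inhibition normalized to DMSO and positive controls.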

IC50 (H929 cells) [nM]	Ki (MCL-1) [nM]	SMILES
< 500	< 1	CNCCNC(=O)O[C@H]1/C=C/COC(C)(C)C(=O)NS(=O)(=O)c2ccc3c(c2)N(C[C@@H]2CC[C@H]21)C[C@@]1(CCCc2cc(Cl)ccc21)CO3 [Example 157, [(3R,6R,7S,8E,22S)-6′-Chloro-12,12-dimethyl-13,15,15-trioxo-spiro[11,20-dioxa-15-thia-1,14-diazatetracyclo[14.7.2.03,6.019,24]pentacosa-8,16,18,24-tetraene-22,1′-tetralin]-7-yl] N-[2-(methylamino)ethyl]carbamate]
< 500	< 1	CC1(C)CN(C(=O)O[C@H]2/C=C/COC(C)(C)C(=O)NS(=O)(=O)c3ccc4c(c3)N(C[C@@H]3CC[C@H]32)C[C@@]2(CCCc3cc(Cl)ccc32)CO4)CCO1 [Example 158, [(3R,6R,7S,8E,22S)-6′-Chloro-12,12-dimethyl-13,15,15-trioxo-spiro[11,20-dioxa-15-thia-1,14-diazatetracyclo[14.7.2.03,6.019,24]pentacosa-8,16,18,24-tetraene-22,1′-tetralin]-7-yl] 2,2-dimethylmorpholine-4-carboxylate]
< 500	< 1	COCCN(C)C(=O)O[C@H]1/C=C/COC(C)(C)C(=O)NS(=O)(=O)c2ccc3c(c2)N(C[C@@H]2CC[C@H]21)C[C@@]1(CCCc2cc(Cl)ccc21)CO3 [Example 159, [(3R,6R,7S,8E,22S)-6′-Chloro-12,12-dimethyl-13,15,15-trioxo-spiro[11,20-dioxa-15-thia-1,14-diazatetracyclo[14.7.2.03,6.019,24]pentacosa-8,16,18,24-tetraene-22,1′-tetralin]-7-yl] N-(2-methoxyethyl)-N-methyl-carbamate]
< 500	< 1	COC[C@@H]1CCCN1C(=O)O[C@H]1/C=C/COC(C)(C)C(=O)NS(=O)(=O)c2ccc3c(c2)N(C[C@@H]2CC[C@H]21)C[C@@]1(CCCc2cc(Cl)ccc21)CO3 [Example 160, [(3R,6R,7S,8E,22S)-6′-Chloro-12,12-dimethyl-13,15,15-trioxo-spiro[11,20-dioxa-15-thia-1,14-diazatetracyclo[14.7.2.03,6.019,24]pentacosa-8,16,18,24-tetraene-22,1′-tetralin]-7-yl] (2S)-2-(methoxymethyl)pyrrolidine-1-carboxylate]
< 1000	< 1	COC[C@H]1CCCN1C(=O)O[C@H]1/C=C/COC(C)(C)C(=O)NS(=O)(=O)c2ccc3c(c2)N(C[C@@H]2CC[C@H]21)C[C@@]1(CCCc2cc(Cl)ccc21)CO3 [Example 161, [(3R,6R,7S,8E,22S)-6′-Chloro-12,12-dimethyl-13,15,15-trioxo-spiro[11,20-dioxa-15-thia-1,14-diazatetracyclo[14.7.2.03,6.019,24]pentacosa-8,16,18,24-tetraene-22,1′-tetralin]-7-yl] (2R)-2-(methoxymethyl)pyrrolidine-1-carboxylate]
< 500	< 1	CCO[C@H]1CCN(C(=O)O[C@H]2/C=C/COC(C)(C)C(=O)NS(=O)(=O)c3ccc4c(c3)N(C[C@@H]3CC[C@H]32)C[C@@]2(CCCc3cc(Cl)ccc32)CO4)C1 [Example 162, [(3R,6R,7S,8E,22S)-6′-Chloro-12,12-dimethyl-13,15,15-trioxo-spiro[11,20-dioxa-15-thia-1,14-diazatetracyclo[14.7.2.03,6.019,24]pentacosa-8,16,18,24-tetraene-22,1′-tetralin]-7-yl] (3S)-3-ethoxypyrrolidine-1-carboxylate]
< 500	< 1	CN[C@H]1CCN(C(=O)O[C@H]2/C=C/COC(C)(C)C(=O)NS(=O)(=O)c3ccc4c(c3)N(C[C@@H]3CC[C@H]32)C[C@@]2(CCCc3cc(Cl)ccc32)CO4)C1 [Example 163, [(3R,6R,7S,8E,22S)-6′-Chloro-12,12-dimethyl-13,15,15-trioxo-spiro[11,20-dioxa-15-thia-1,14-diazatetracyclo[14.7.2.03,6.019,24]pentacosa-8,16,18,24-tetraene-22,1′-tetralin]-7-yl] (3S)-3-(methylamino)pyrrolidine-1-carboxylate]
< 500	< 1	CN[C@@H]1CCN(C(=O)O[C@H]2/C=C/COC(C)(C)C(=O)NS(=O)(=O)c3ccc4c(c3)N(C[C@@H]3CC[C@H]32)C[C@@]2(CCCc3cc(Cl)ccc32)CO4)C1 [Example 164, [(3R,6R,7S,8E,22S)-6′-Chloro-12,12-dimethyl-13,15,15-trioxo-spiro[11,20-dioxa-15-thia-1,14-diazatetracyclo[14.7.2.03,6.019,24]pentacosa-8,16,18,24-tetraene-22,1′-tetralin]-7-yl] (3R)-3-(methylamino)pyrrolidine-1-carboxylate]
< 500	< 1	CC1(C)OC/C=C/[C@H](OC(=O)N2CC(F)C2)[C@@H]2CC[C@H]2CN2C[C@@]3(CCCc4cc(Cl)ccc43)COc3ccc(cc32)S(=O)(=O)NC1=O [Example 165, [(3R,6R,7S,8E,22S)-6′-Chloro-12,12-dimethyl-13,15,15-trioxo-spiro[11,20-dioxa-15-thia-1,14-diazatetracyclo[14.7.2.03,6.019,24]pentacosa-8,16,18,24-tetraene-22,1′-tetralin]-7-yl] 3-fluoroazetidine-1-carboxylate]
< 500	< 1	CC1(C)OC/C=C/[C@H](OC(=O)N2CCC(F)(F)C2)[C@@H]2CC[C@H]2CN2C[C@@]3(CCCc4cc(Cl)ccc43)COc3ccc(cc32)S(=O)(=O)NC1=O [Example 166, [(3R,6R,7S,8E,22S)-6′-Chloro-12,12-dimethyl-13,15,15-trioxo-spiro[11,20-dioxa-15-thia-1,14-diazatetracyclo[14.7.2.03,6.019,24]pentacosa-8,16,18,24-tetraene-22,1′-tetralin]-7-yl] 3,3-difluoropyrrolidine-1-carboxylate]
< 500	< 1	CONC(=O)O[C@H]1/C=C/COC(C)(C)C(=O)NS(=O)(=O)c2ccc3c(c2)N(C[C@@H]2CC[C@H]21)C[C@@]1(CCCc2cc(Cl)ccc21)CO3 [Example 167, [(3R,6R,7S,8E,22S)-6′-Chloro-12,12-dimethyl-13,15,15-trioxo-spiro[11,20-dioxa-15-thia-1,14-diazatetracyclo[14.7.2.03,6.019,24]pentacosa-8,16,18,24-tetraene-22,1′-tetralin]-7-yl] N-methoxycarbamate]
< 500	< 1	CN(C)C[C@@H]1CCCN1C(=O)O[C@H]1/C=C/COC(C)(C)C(=O)NS(=O)(=O)c2ccc3c(c2)N(C[C@@H]2CC[C@H]21)C[C@@]1(CCCc2cc(Cl)ccc21)CO3 [Example 168, [(3R,6R,7S,8E,22S)-6′-Chloro-12,12-dimethyl-13,15,15-trioxo-spiro[11,20-dioxa-15-thia-1,14-diazatetracyclo[14.7.2.03,6.019,24]pentacosa-8,16,18,24-tetraene-22,1′-tetralin]-7-yl] (2S)-2-[(dimethylamino)methyl]pyrrolidine-1-carboxylate]
< 1000	< 1	CC1(C)OC/C=C/[C@H](OC(=O)N2CC3CCC(C2)O3)[C@@H]2CC[C@H]2CN2C[C@@]3(CCCc4cc(Cl)ccc43)COc3ccc(cc32)S(=O)(=O)NC1=O [Example 170, [(3R,6R,7S,8E,22S)-6′-Chloro-12,12-dimethyl-13,15,15-trioxo-spiro[11,20-dioxa-15-thia-1,14-diazatetracyclo[14.7.2.03,6.019,24]pentacosa-8,16,18,24-tetraene-22,1′-tetralin]-7-yl] 8-oxa-3-azabicyclo[3.2.1]octane-3-carboxylate]
< 500	< 1	CC1(C)OC/C=C/[C@H](OC(=O)N2CCN3CCOC[C@H]3C2)[C@@H]2CC[C@H]2CN2C[C@@]3(CCCc4cc(Cl)ccc43)COc3ccc(cc32)S(=O)(=O)NC1=O [Example 171, [(3R,6R,7S,8E,22S)-6′-Chloro-12,12-dimethyl-13,15,15-trioxo-spiro[11,20-dioxa-15,6-thia-1,14-diazatetracyclo[14.7.2.03,6.019,24]pentacosa-8,16,18,24-tetraene-22,1′-tetralin]-7-yl](9aS)-3,4,6,7,9,9a-hexahydro-1H-pyrazino[2,1-c][1,4]oxazine-8-carboxylate]
< 500	< 1	CC1(C)OC/C=C/[C@H](OC(=O)N2CCOCC2)[C@@H]2CC[C@H]2CN2C[C@@]3(CCCc4cc(Cl)ccc43)COc3ccc(cc32)S(=O)(=O)NC1=O [Example 172, [(3R,6R,7S,8E,22S)-6′-Chloro-12,12-dimethyl-13,15,15-trioxo-spiro[11,20-dioxa-15-thia-1,14-diazatetracyclo[14.7.2.03,6.019,24]pentacosa-8,16,18,24-tetraene-22,1′-tetralin]-7-yl]morpholine-4-carboxylate]
< 500	< 1	CC1(C)OC/C=C/[C@H](OC(=O)N2CCCC2)[C@@H]2CC[C@H]2CN2C[C@@]3(CCCc4cc(Cl)ccc43)COc3ccc(cc32)S(=O)(=O)NC1=O [Example 173, [(3R,6R,7S,8E,22S)-6′-Chloro-12,12-dimethyl-13,15,15-trioxo-spiro[11,20-dioxa-15-thia-1,14-diazatetracyclo[14.7.2.03,6.019,24]pentacosa-8,16,18,24-tetraene-22,1′-tetralin]-7-yl]pyrrolidine-1-carboxylate]
< 500	< 1	CC1(C)OC/C=C/[C@H](OC(=O)N2CCC2)[C@@H]2CC[C@H]2CN2C[C@@]3(CCCc4cc(Cl)ccc43)COc3ccc(cc32)S(=O)(=O)NC1=O [Example 174, [(3R,6R,7S,8E,22S)-6′-Chloro-12,12-dimethyl-13,15,15-trioxo-spiro[11,20-dioxa-15-thia-1,14-diazatetracyclo[14.7.2.03,6.019,24]pentacosa-8,16,18,24-tetraene-22,1′-tetralin]-7-yl] azetidine-1-carboxylate]
